pEC50: −log10 of the molar value. Activity calls are given as the source filed them. The rule behind the calls is not given here.

The test system of the experiment is UPR adaptive arm reporter cells, luciferase luminescence. Kind of experiment: activators of adaptive UPR signalling, dose response, cell-based, luciferase luminescence (AID 489032).
Turning to `Cc1cc(NC(=O)CSc2nc3sc(C)c(C)c3c(=O)n2C2CCCC2)no1`, the EC50 is > 80 µM (inactive).

With `COc1ccc(OCc2n(CC(=O)OC3CC(C)CCC3C(C)C)c3ccccc3[n+]2C)cc1` (stereo unspecified), the EC50 was > 80 µM (inactive).

Consider `COc1cc(/C=C2\CC(C(C)(C)C)C/C(=C\c3cc(OC)c(OC)c(OC)c3)C2=O)cc(OC)c1OC` (stereo unspecified), for which the EC50 was 39.3 µM (inactive).

Regarding `CCc1ccc(NC(=O)C(CC)Sc2nc3cc4c(cc3c(=O)n2Cc2ccco2)OCO4)cc1` (stereo unspecified), the EC50 was > 80 µM (inactive).

Take `CC1CCN(Cc2c(C(=O)N/N=C/c3ccc(C(C)C)cc3)nnn2-c2nonc2N)CC1`: the EC50 was > 80 µM (inactive).

Turning to `C[C@@H]1C[C@H]2[C@@H]3CCC4=CC(=O)C=C[C@]4(C)[C@@]3(Cl)[C@@H](O)C[C@]2(C)[C@@]1(OC(=O)c1ccco1)C(=O)CCl`, the EC50 was > 80 µM (inactive).

As to `COc1cc(NC(=O)c2cncc(-c3ccc(C#N)cc3)c2)cc(C(=O)Nc2cccc(C(F)(F)F)c2)c1`, the EC50 is 46.3 µM (inactive).

With `Oc1cc(-c2cccnc2)cc2cccnc12`, the EC50 was > 80 µM (inactive).

Regarding `CC1CCCCC1N1CN=C(Nc2nc3ccccc3s2)NC1` (stereo unspecified), the EC50 was > 80 µM (inactive).

In the case of `Cc1ccc(CNC(=O)c2ccc3c(=O)n4c(-c5ccc(C)cc5)csc4nc3c2)cc1`, the EC50 is > 80 µM (inactive).

Take `Cc1cccc(Nc2nc3c(S(=O)(=O)c4ccccc4)nnn3c3ccccc23)c1C`: the EC50 was 50.2 µM (inactive).

With `COc1cc([C@@H]2c3cc4c(cc3[C@@H](O)[C@H]3COC(=O)[C@H]23)OCO4)cc(OC)c1O[Si](C)(C)C(C)(C)C`, the EC50 is > 80 µM (inactive).

Regarding `Cc1ccccc1NC(=O)c1ccc(N/N=C/c2ccccc2O)c([N+](=O)[O-])c1`, the EC50 was > 80 µM (inactive).

On to `Cn1c(=O)c2c(SCC(=O)Nc3ccccc3F)nc(-c3ccccc3F)nc2n(C)c1=O`, for which the EC50 is 36.1 µM (inactive).

Consider `CN1C(=O)/C(=C/c2ccc(C(=O)NC3CCCC3)cc2)Oc2ccccc21`, for which the EC50 is > 80 µM (inactive).

As for `COc1ccc(C(CCNCc2ccccc2)c2ccc(F)cc2)cc1` (stereo unspecified), the pEC50 is 4.97.

As to `C[C@H]1[C@H](C)CC[C@]2(C(=O)O)CC[C@]3(C)C(=CC[C@@H]4[C@@]5(C)C[C@@H](O)[C@H](O)C(C)(C)[C@@H]5CC[C@]43C)[C@H]12`, the EC50 was > 80 µM (inactive).

For the compound `CCCNC(=O)/C(C#N)=C1\N=C(NC(=O)c2cccs2)c2ccccc21`, the EC50 was > 80 µM (inactive).

On to `CC(C)(C)c1ccc(C(=O)Nc2ccc(O)c3c(=O)cc(-c4cccc(Cl)c4)oc23)cc1`, for which the EC50 is > 80 µM (inactive).

For the compound `O=C1NC(=O)N(Cc2ccccc2Cl)C(=O)/C1=C/c1cccs1`, the EC50 was > 80 µM (inactive).

`O=C(/C=C/c1ccccc1)NC(NC(=S)Nc1cccc(Cl)c1)C(Cl)(Cl)Cl` (stereo unspecified): the EC50 was > 80 µM (inactive).

In the case of `CCCNC(=O)c1ccc2c(=O)c(O)c(-c3ccc(OC)cc3)[nH]c2c1`, the EC50 was > 80 µM (inactive).

With `CC(=O)Nc1ccccc1Sc1ccc2c3c(cccc13)C(=O)N(c1ccc(C)cc1)C2=O`, the EC50 was > 80 µM (inactive).

As to `O=C(CSc1nc2ccccc2c(=O)n1-c1ccccc1)N1CCc2ccccc21`, the EC50 is > 80 µM (inactive).

`CC(C)(C)C(=O)NC(=S)NNC(=O)c1ccc(-c2ccccc2)cc1`: the pEC50 was 5.03.

As for `O=C(/C=C/c1cc([N+](=O)[O-])ccc1OC(F)F)Nc1cccc([N+](=O)[O-])c1`, the EC50 is > 80 µM (inactive).

As for `CCOc1cc(/C=N\Nc2ccc([N+](=O)[O-])cc2)ccc1OCC(=O)Nc1ccc(C)c(C)c1`, the EC50 is 43.2 µM (inactive).

With `Cc1ccc(F)cc1N=Cc1c(O)c2ccccc2oc1=O`, the pEC50 was 5.00.

As for `COc1ccccc1-c1sc2cc3c(cc2c1-c1ccc(OCCN2CCCCC2)cc1)OCO3`, the EC50 is > 80 µM (inactive).

With `NCCc1c(-c2ccccc2)n(-c2ccccc2)c2ccccc12`, the EC50 is > 80 µM (inactive).

For `C=CCN=C1S/C(=C/c2cccc([N+](=O)[O-])c2)C(=O)N1CC=C`, the EC50 was > 80 µM (inactive).

`CCCCN(CC)S(=O)(=O)c1ccc(C(=O)N=c2sc3cc(NC(C)=O)ccc3n2C)cc1`: the pEC50 was 5.27.

Turning to `COc1ccccc1N=Cc1c(O)c2ccccc2oc1=O`, the pEC50 was 4.79.

As for `Cc1ccc(-c2nnn(CC(=O)Nc3ccc(S(=O)(=O)N4CCC(C)CC4)cc3)n2)cc1`, the EC50 was > 80 µM (inactive).

As for `Fc1ccc(Nc2nc(NCc3ccco3)c3ccccc3n2)cc1`, the EC50 is > 80 µM (inactive).

`N#Cc1ccccc1/C=N/Nc1nc(-c2ccccc2)c2cc(Cl)ccc2n1`: the EC50 is > 80 µM (inactive).

Take `COc1cc(/C=C/c2ccc3cccc(O)c3n2)ccc1O`: the EC50 is > 80 µM (inactive).

For the compound `CCCCCCCCCCOC(=O)Cn1c(COc2ccccc2C)[n+](C)c2ccccc21`, the EC50 is > 80 µM (inactive).

Turning to `O=C(/C=C1\NC2(CCCC2)Cc2ccccc21)C(=O)N/N=C/c1ccc(O)c(O)c1`, the EC50 was 32 µM (inactive).

Take `N#C/C(=C\c1ccc(OCc2ccccc2)cc1)C(=O)Nc1nc2c(s1)CCN(Cc1ccccc1)C2`: the EC50 was > 80 µM (inactive).

`FC(F)(F)c1nnc2c(Sc3ccccc3)nc3ccc(Cl)cc3n12`: the EC50 was > 80 µM (inactive).

On to `Cc1ccc2nc(SCC(=O)Nc3cc(C(F)(F)F)ccc3N3CCOCC3)[nH]c2c1`, for which the EC50 was > 80 µM (inactive).

As for `Cc1ccc(C(=O)N2N=C(c3ccc(Br)cc3)CC2c2ccccc2O)cc1` (stereo unspecified), the EC50 was > 80 µM (inactive).

As for `CC(C)=CCCC1(C)C=Cc2c(ccc3c2[nH]c2cc(O)c(C)cc23)O1` (stereo unspecified), the EC50 was > 80 µM (inactive).

Take `Cc1nc(NC(=O)CSc2ccc(-c3nc4ccccc4[nH]3)cn2)sc1C`: the EC50 is > 80 µM (inactive).

For the compound `C#CCn1c(=NC(=O)c2ccc(Br)s2)sc2cccc(OC)c21`, the EC50 was > 80 µM (inactive).

On to `O=C(Oc1ccc(F)cc1C(=O)/C=C/c1cccs1)c1cccc([N+](=O)[O-])c1`, for which the EC50 is 51.3 µM (inactive).

As to `Cc1cccc2sc(NC(=O)c3cc(S(=O)(=O)N(C)C)ccc3N3CCCC3)nc12`, the pEC50 was 5.01.

In the case of `CCCCN1C(=O)C(=O)c2cc(Cl)ccc21`, the EC50 was 52.4 µM (inactive).

Take `CC1=CC(C)[C@H](/C=N/n2c(=O)[nH]c3c([nH]c4ccc(Br)cc43)c2=O)C(C)C1` (stereo partly specified): the EC50 was > 80 µM (inactive).

Regarding `Cc1ccccc1OCc1nc(-c2ccc(NC(=O)c3ccc4c(c3)OCO4)cc2)no1`, the EC50 was > 80 µM (inactive).

For the compound `NC(=S)N/N=C/c1ccc(C23CC4CC(CC(C4)C2)C3)cc1`, the EC50 was 40 µM (inactive).

Regarding `O=C(N/N=C/c1ccc(O)c(O)c1)c1ccc(CSc2cccc3cccnc23)cc1`, the EC50 was > 80 µM (inactive).

On to `COc1cccc(-c2sc3ccccc3c2-c2ccc(OCCN(C)C)cc2)c1`, for which the EC50 is > 80 µM (inactive).

As to `Cc1c(O)cc2c(c1O)C(=O)CC(c1ccccc1)O2` (stereo unspecified), the pEC50 was 4.97.

As for `COc1ccc(N2CCN(Cc3cc(=O)oc4cc(-c5ccccc5)c(O)cc34)CC2)cc1`, the EC50 is > 80 µM (inactive).

For `O=C(N/N=C/c1ccccc1Cl)c1[nH]c2ccc(Br)cc2c1-c1ccccc1`, the EC50 is 32.9 µM (inactive).

`CCOc1ccc(-n2nc3ccc(NC(=O)c4ccc5c(c4)OCCO5)cc3n2)cc1`: the EC50 is > 80 µM (inactive).

Turning to `CCOC(=O)c1c(NC(=O)Cc2cccs2)sc(C(=O)NC2CCCCC2)c1C`, the EC50 is > 80 µM (inactive).

`COC(=O)C1C(O)=C(C=Nc2cccc3ccccc23)C(=O)CC1(C)C` (stereo unspecified): the EC50 is 30.1 µM (inactive).

Consider `N#C/C(=C\c1ccc(N2CCCC2)c([N+](=O)[O-])c1)c1nc2ccccc2[nH]1`, for which the EC50 was > 80 µM (inactive).

`COc1ccc(NC(=O)C(=O)N/N=C\c2ccc(CNC(=O)C(=O)Nc3ccc(C)c(C)c3)o2)c(OC)c1`: the EC50 was > 80 µM (inactive).

For the compound `CC1=Nc2ccccc2/C1=C\c1sc(Nc2ccc(C)cc2)nc1O`, the EC50 was > 80 µM (inactive).

Turning to `CCC(=O)Nc1ccc(NC(=O)CSc2nc3cc4c(cc3cc2C)CCC4)cc1`, the EC50 is > 80 µM (inactive).

Regarding `Cc1cc(C)c2c(CCl)cc(=O)oc2c1`, the EC50 is > 80 µM (inactive).

For the compound `O=C(COc1ccc(/C=N/NC(=O)c2cc3ccccc3o2)cc1Br)Nc1ccccc1`, the EC50 was > 80 µM (inactive).

Regarding `CCOc1cc(/C=C(\C#N)c2[nH]nc(N)c2C#N)ccc1O`, the EC50 was > 80 µM (inactive).

`CC1(C)CC(=O)C(C=Nc2ccc(C(=O)c3ccccc3)cc2N=CC2=C(O)CC(C)(C)CC2=O)=C(O)C1`: the EC50 is > 80 µM (inactive).

Regarding `COc1ccccc1NC(=O)c1cc2c(CO)cnc(C)c2oc1=Nc1ccccc1`, the EC50 is 25.7 µM (inactive).

On to `CCC(=O)Nc1cccc(C(=O)/C=C/c2ccc(F)cc2)c1`, for which the EC50 was > 80 µM (inactive).

For `CCOC(=O)c1nn(-c2ccc(OCC)cc2)c2nc(-c3ccco3)c(C#N)c(=O)n12`, the EC50 is 58.9 µM (inactive).

Regarding `N#CCC(=O)N/N=C/c1cn(Cc2cccc3ccccc23)c2ccccc12`, the EC50 was > 80 µM (inactive).

As for `O=C(COC(=O)c1ccc2[nH]c3c(c2c1)CCCC3)Nc1ccccc1Cl`, the EC50 is > 80 µM (inactive).

`Cc1cc(NC(=O)c2cc(-c3ccccn3)nc3ccc(Br)cc23)no1`: the EC50 was > 80 µM (inactive).

As for `Cc1ccc(NC(=O)CSc2nc3ccccc3c3nc4ccccc4n23)cc1`, the pEC50 is 5.11.

In the case of `CCCCCCCCCCOC(=O)Cn1c(COc2ccccc2OC)[n+](C)c2ccccc21`, the pEC50 is 4.74.

`O=C(COc1ccc(Cl)cc1Cl)NN=C1c2ccccc2-c2ccccc21`: the EC50 is > 80 µM (inactive).

In the case of `COc1ccc(OC)c(-c2nnc3n2N=C(c2ccc(OC)c(OC)c2)CS3)c1`, the EC50 is > 80 µM (inactive).

In the case of `O=C(NC(=S)Nc1cc(-c2nc3ccccc3[nH]2)ccc1Cl)c1ccc2c(c1)OCO2`, the pEC50 was 5.00.

In the case of `O=c1[nH]c(CSc2ncnc3sc(-c4ccccc4)cc23)nc2ccccc12`, the EC50 was > 80 µM (inactive).

On to `CCOc1cc2c3c(c1)C(C)=CC(C)(C)N3C(=O)C2=O`, for which the EC50 was 54.6 µM (inactive).

For the origin of these results see PubChem BioAssay AID489032 (Sanford-Burnham Center for Chemical Genomics, 2010).
